Where two headings read alike, the source gives them in different places. Where a SMILES comes first, the peptide text is derived from it. Bridges are numbered along the chain shown (N, C = ends). Roman numbers before positions name the chains, in order. Where no end group is shown, it is not given here. [ ]: non-standard residue; d: D form. βAla = NCCC(=O)O
How the values were obtained:
P. aeruginosa AV65 = assay type: cell-based, Pseudomonas aeruginosa
Description: (§1) M33, […], M35 and M36 MICs were determined against strains of several bacterial species, including Gram-negative pathogens and also Staphylococcus aureus (Table 1). MICs in the micromolar range were observed against several Gram-negatives including Pseudomonas aeruginosa, Acinetobacter baumannii and most Enterobacteriaceae, with the exception of Proteus mirabilis, Serratia marcescens and Burkholderia cepacia. Activity of peptides was retained against MDR strains with various resistance mechanisms (such as extended-spectrum beta-lactamases and carbapenemases), including MDR P. aeruginosa strains from CF patients. Antimicrobial profile of M33, […] and potency were overall similar to those of polymyxin B, although M33, M34, M35 and M36 also appeared to have some activity against S. aureus (Table 1).

P. aeruginosa EF-OBG6-1 = assay type: cell-based, Pseudomonas aeruginosa
Description: as §1

P. aeruginosa PAO-1 = assay type: cell-based, Pseudomonas aeruginosa
Description: as §1

[1] = test system: P. aeruginosa SC-BGr12-02; assay type: cell-based, Pseudomonas aeruginosa
Description: as §1

[2] = test system: P. aeruginosa SC-CNm03-07; assay type: cell-based, Pseudomonas aeruginosa
Description: as §1

[3] = test system: P. aeruginosa SC-DMr05-04; assay type: cell-based, Pseudomonas aeruginosa
Description: as §1

[4] = test system: P. aeruginosa SC-GMm03-05; assay type: cell-based, Pseudomonas aeruginosa
Description: as §1

[5] = test system: P. aeruginosa SC-MDm03-02; assay type: cell-based, Pseudomonas aeruginosa
Description: as §1

[6] = test system: P. aeruginosa SC-MDr03-06; assay type: cell-based, Pseudomonas aeruginosa
Description: as §1

[7] = test system: P. aeruginosa SC-VMr04-05; assay type: cell-based, Pseudomonas aeruginosa
Description: as §1

P. aeruginosa VR-143/97 = assay type: cell-based, Pseudomonas aeruginosa
Description: as §1

[8] = test system: Acinetobacter baumannii RUH 134; assay type: cell-based
Description: as §1

[9] = test system: Burkholderia cepacia ORB-99; assay type: cell-based
Description: as §1

[10] = test system: Enterobacer aerogenes W03BG0067; assay type: cell-based
Description: as §1

[11] = test system: Enterobacter cloacae W03AN0041; assay type: cell-based
Description: as §1

[12] = test system: Escherichia coli ATCC 25922; assay type: cell-based
Description: as §1

[13] = test system: Klebsiella pneumoniae ATCC 13833; assay type: cell-based
Description: as §1

[14] = test system: Proteus mirabilis W03VA1017; assay type: cell-based
Description: as §1

[15] = test system: Pseudomonas aeruginosa ATCC 27853; assay type: cell-based
Description: as §1

[16] = test system: Serratia marcescens W03BG0003; assay type: cell-based
Description: as §1

[17] = test system: Staphylococcus aureus ATCC 29213; assay type: cell-based
Description: as §1

K pneumoniae 7086042 = assay type: cell-based, Klebsiella pneumoniae
Description: as §1

K pneumoniae C8-27 = assay type: cell-based, Klebsiella pneumoniae
Description: as §1

K pneumoniae FIPP-1 = assay type: cell-based, Klebsiella pneumoniae
Description: as §1

E. coli W03BG0025 = assay type: cell-based, Escherichia coli
Description: as §1

A. baumannii MR157 = assay type: cell-based, Acinetobacter baumannii
Description: as §1

A. baumannii RUH 875 = assay type: cell-based, Acinetobacter baumannii
Description: as §1

S. aureus 3851 = assay type: cell-based, Staphylococcus aureus
Description: as §1

human erythrocytes = assay type: cell-based
Description: FIG. 2. Percentage of haemolysis provoked by tetra-branched M33 peptide incubated 3 or 24 hours with human red blood cells.
Haemolysis of fresh human erythrocytes was determined using the method of Parpart, summarized as follows. A calibration curve was constructed by suspending fresh human erythrocytes in phosphate buffer (pH 7.4, 110 mM sodium phosphate) with various concentrations of NaCl and incubated for 30 min at room temperature. Samples were centrifuged at 500×g for 5 minutes, and haemoglobin release was monitored by measuring the absorbance of supernatants at 540 nm. The absorbance obtained with 0.1% NaCl corresponded to 100% lysis and that with 1% NaCl, to 0% lysis. Peptides dissolved in PBS were added to human erythrocyte solution at several concentrations. The resulting suspension was incubated separately at 37° C. for 2 h and 24 h. Release of hemoglobin was monitored by measuring the absorbance of the suspernatant at 540 nm after centrifuging and haemolysis percentage was calculated using the calibration curve.

E. coli TG1 = assay: Antibacterial activity against E. coli TG1 cells (CFU count after 75 min incubation, FIG. 1A); assay type: cell-based; conditions: 75 minutes at 37° C., CFU counted
Description: FIG. 1. A, Antibacterial activity against E. coli TG1 cells. Comparison of the following tetra-branched peptides: M6 batch 1 synthesis (triangles), M6 batch 2 synthesis (squares), M6 batch 3 synthesis (white circles), which contain a mixture of Gln and pyroGlu (in unknown percentages) as first amino-acid, […] (asterisks), where the first amino-acid is 100% pyroGlu, and M33 (black circles), in which the first Gln was deleted. […] SD derived by means of three different experiments. Many different syntheses of M33 (and also of M34, M35 and M36, here not shown) gave perfectly overlapping results without any wavering outcome. B, Mass spectrometry analysis of tetra-branched peptide M6 crude mixture. Calculated molecular mass of M6 was 5195 Da. Two main peaks are present, one at 5197 Da corresponding to unmodified M6 and one at 5179 Da that corresponds to the secondary product with one pyroGlu in first position in the place of one of the four Gln. C, Mass spectrometry analysis of tetrabranched peptide M33 after 24 hours of incubation in serum. The peptide appears as a single peak at the expected molecular mass (4683 Da).
A single colony of E. coli TG1 strain was cultured in 2×TY medium to 0.2 OD^600. […] The following day colonies (CFU/ml) grown on plates were counted.

Polymyxin B [reference compound]
1.5 µM: MIC (P. aeruginosa AV65; P. aeruginosa AV65, FQr AGr ESCr NEMr (MBL/IMP-13)) | MIC (P. aeruginosa PAO-1; P. aeruginosa PAO-1, reference strain, wild type) | MIC ([1]; P. aeruginosa SC-BGr12-02, CF clinical isolate, FQr AGr ESCr NEMr) | MIC ([3]; P. aeruginosa SC-DMr05-04, CF clinical isolate, FQr AGr ESCr NEMr) | MIC ([4]; P. aeruginosa SC-GMm03-05, CF clinical isolate, mucoid, FQr AGr ESCr NEMr) | MIC ([5]; P. aeruginosa SC-MDm03-02, CF clinical isolate, mucoid, FQr AGr ESCr NEMr) | MIC ([6]; P. aeruginosa SC-MDr03-06, CF clinical isolate, FQr AGr ESCr NEMr) | MIC ([7]; P. aeruginosa SC-VMr04-05, CF clinical isolate, FQr AGr ESCr NEMr) | MIC (P. aeruginosa VR-143/97; P. aeruginosa VR-143/97, FQr AGr ESCr NEMr (MBL/VIM-1)) | MIC ([8]; Acinetobacter baumannii RUH 134, reference strain, European clone II) | MIC ([15]; Pseudomonas aeruginosa ATCC 27853, reference strain, wild type) | MIC (K pneumoniae 7086042; K pneumoniae 7086042, FQr AGr ESCr NEMr (MBL/VIM-1)) | MIC (K pneumoniae FIPP-1; K pneumoniae FIPP-1, FQr AGr ESCr NEMr (MBL/KPC-3)) | MIC (A. baumannii MR157; A. baumannii MR157, FQr AGr ESCr NEMr (OXA/OXA-58)) | MIC (A. baumannii RUH 875; A. baumannii RUH 875, reference strain, European clone I)
96 µM: MIC ([17]; Staphylococcus aureus ATCC 29213, reference strain, PENr) | MIC (S. aureus 3851; S. aureus 3851, MR VANi)
0.7 µM: MIC (P. aeruginosa EF-OBG6-1; P. aeruginosa EF-OBG6-1, CF clinical isolate, FQr AGr ESCr NEMr (MBL/IMP-13)) | MIC ([2]; P. aeruginosa SC-CNm03-07, CF clinical isolate, mucoid, FQr AGr ESCr NEMr) | MIC ([10]; Enterobacer aerogenes W03BG0067, AGr ESCr (ESBL/SHV-5)) | MIC ([11]; Enterobacter cloacae W03AN0041, ESCr (ESBL/SHV-12)) | MIC ([12]; Escherichia coli ATCC 25922, reference strain, wild type) | MIC ([13]; Klebsiella pneumoniae ATCC 13833, reference strain, wild type) | MIC (K pneumoniae C8-27; K pneumoniae C8-27, FQr AGr ESCr ETPr (ESBL/CTX-M-15)) | MIC (E. coli W03BG0025; E. coli W03BG0025, FQr AGr ESCr (ESBL/CTX-M-15))
>96 µM: MIC ([9]; Burkholderia cepacia ORB-99, CF clinical isolate, wild type) | MIC ([14]; Proteus mirabilis W03VA1017, FQr ESCr (AmpC/CMY-16)) | MIC ([16]; Serratia marcescens W03BG0003, FQr AGr ESCr (ESBL/SHV-12))

CC[C@H](C)[C@H](NC(=O)[C@H](CCCCN)NC(=O)[C@@H](N)CCCNC(=N)N)C(=O)N[C@@H](CCCNC(=N)N)C(=O)N[C@H](C(=O)N[C@@H](CCCNC(=N)N)C(=O)N[C@@H](CC(C)C)C(=O)N[C@@H](CO)C(=O)N[C@@H](C)C(=O)NCCCC[C@H](NC(=O)[C@H](C)NC(=O)[C@H](CO)NC(=O)[C@H](CC(C)C)NC(=O)[C@H](CCCNC(=N)N)NC(=O)[C@@H](NC(=O)[C@H](CCCNC(=N)N)NC(=O)[C@@H](NC(=O)[C@H](CCCCN)NC(=O)[C@@H](N)CCCNC(=N)N)[C@@H](C)CC)C(C)C)C(=O)NCCCC[C@H](NC(=O)[C@H](CCCCNC(=O)[C@H](C)NC(=O)[C@H](CO)NC(=O)[C@H](CC(C)C)NC(=O)[C@H](CCCNC(=N)N)NC(=O)[C@@H](NC(=O)[C@H](CCCNC(=N)N)NC(=O)[C@@H](NC(=O)[C@H](CCCCN)NC(=O)[C@@H](N)CCCNC(=N)N)[C@@H](C)CC)C(C)C)NC(=O)[C@H](C)NC(=O)[C@H](CO)NC(=O)[C@H](CC(C)C)NC(=O)[C@H](CCCNC(=N)N)NC(=O)[C@@H](NC(=O)[C@H](CCCNC(=N)N)NC(=O)[C@@H](NC(=O)[C@H](CCCCN)NC(=O)[C@@H](N)CCCNC(=N)N)[C@@H](C)CC)C(C)C)C(=O)NCCC(=O)O)C(C)C [M36, RKIRVRLSA] (I: H-RKIRVRLSAKK[βAla]-OH / II: H-RKIRVRLSAK / III: H-RKIRVRLSA / IV: H-RKIRVRLSA; amide I:10-IV:C, I:11-II:C, II:10-III:C; N-terminus assumed)
practically negligible haemolysis grade: Haemolysis of human red blood cells (human erythrocytes)
>24 µM: MIC ([9]; 24 h) | MIC ([14]; W03VA1017, 24 h) | MIC ([16]; W03BG0003, 24 h)
1.5 µM: MIC (P. aeruginosa AV65; AV65, 24 h) | MIC (P. aeruginosa EF-OBG6-1; EF-OBG6-1, 24 h) | MIC (P. aeruginosa PAO-1; PAO-1, 24 h) | MIC ([1]; SC-BGr12-02, 24 h) | MIC ([3]; SC-DMr05-04, 24 h) | MIC ([4]; SC-GMm03-05, 24 h) | MIC (P. aeruginosa VR-143/97; VR-143/97, 24 h) | MIC ([8]; RUH 134, 24 h) | MIC ([10]; 24 h) | MIC ([12]; ATCC 25922, 24 h) | MIC ([13]; ATCC 13833, 24 h) | MIC ([15]; ATCC 27853, 24 h) | MIC (K pneumoniae C8-27; C8-27, 24 h) | MIC (E. coli W03BG0025; W03BG0025, 24 h)
3 µM: MIC ([5]; SC-MDm03-02, 24 h) | MIC ([6]; SC-MDr03-06, 24 h) | MIC ([7]; SC-VMr04-05, 24 h) | MIC ([11]; W03AN0041, 24 h) | MIC (K pneumoniae 7086042; 7086042, 24 h) | MIC (K pneumoniae FIPP-1; FIPP-1, 24 h) | MIC (A. baumannii MR157; MR157, 24 h) | MIC (A. baumannii RUH 875; RUH 875, 24 h)
0.3 µM: MIC ([2]; SC-CNm03-07, 24 h)
6 µM: MIC ([17]; ATCC 29213, 24 h) | MIC (S. aureus 3851; 3851, 24 h)

QKKIRVRLSA (also: tetra-branched MAP) [M6, previously reported tetra-branched MAP peptide with Gln as first amino-terminal residue, reference compound]
intermediate antimicrobial activities: Antibacterial activity against E. coli TG1 cells (comparison of tetra-branched peptides, FIG. 1A) (E. coli TG1)

— patent US8440794B2, “Peptide sequences, their branched form and use thereof for antimicrobial applications” (Universita' Degli Studi di Siena, priority 2008, dated 2013)
